From ChEMBL document CHEMBL2321670, “Near native binding of a fluorescent serotonin conjugate to serotonin type 3 receptors” (Bioorg Med Chem Lett, 2013)
pKd: −log10 of the molar value. Activity calls are given as the source filed them. No cut-off for these calls is given here.

Experiments:
Type in all cases: cell-based
[1] = molecular target: T1, 5-hydroxytryptamine receptor 3A (Homo sapiens, UniProt P46098); experiment: Binding affinity to C-terminal-His6-tagged 5HT3A receptor (unknown origin) expressed in HEK293 cells after 2 hrs by fluorimetric analysis
T1 sequence (P46098 whole entry): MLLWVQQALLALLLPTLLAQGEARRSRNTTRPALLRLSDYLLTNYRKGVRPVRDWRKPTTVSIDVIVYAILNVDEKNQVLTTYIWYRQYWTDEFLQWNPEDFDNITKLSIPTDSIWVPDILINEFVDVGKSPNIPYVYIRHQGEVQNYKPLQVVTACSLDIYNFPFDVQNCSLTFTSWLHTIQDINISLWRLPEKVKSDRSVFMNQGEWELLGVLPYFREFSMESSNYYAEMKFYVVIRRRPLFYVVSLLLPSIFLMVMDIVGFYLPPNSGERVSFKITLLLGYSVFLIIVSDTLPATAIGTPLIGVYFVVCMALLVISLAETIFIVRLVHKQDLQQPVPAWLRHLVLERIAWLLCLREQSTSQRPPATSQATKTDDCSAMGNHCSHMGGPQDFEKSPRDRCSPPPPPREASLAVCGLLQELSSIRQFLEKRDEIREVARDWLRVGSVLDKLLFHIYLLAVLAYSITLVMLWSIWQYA

[2] = molecular target: T2, 5-hydroxytryptamine receptor 3A (Homo sapiens) (UniProt P46098); experiment: Binding affinity to C-terminal-His6-tagged 5HT3A receptor (unknown origin) expressed in HEK293 cells assessed as decrease in fluorescence at 10 to 500 nM after 2 hrs by fluorimetric analysis in presence of granisetron
T2 sequence (whole entry): T1 sequence (P46098 whole entry)

[3] = molecular target: T2, 5-hydroxytryptamine receptor 3A (Homo sapiens); experiment: Binding affinity to C-terminal-His6-tagged 5HT3A receptor (unknown origin) expressed in HEK293 cells assessed as decrease in fluorescence at 10 to 500 nM after 2 hrs by fluorimetric analysis

pKd [1]: 7.08 | Activity [2]: inactive | Activity [3]: Active
Structure (SMILES): CN(C)c1ccc2c(-c3ccc(C(=O)NCCCCCNC(=O)CCn4cc(CCN)c5cc(O)ccc54)cc3C(=O)[O-])c3ccc(=[N+](C)C)cc-3oc2c1
